This is an account of results in patent publication US20220306587A1, “COMPOUNDS AND USE THEREOF FOR THE TREATMENT OF INFECTIOUS DISEASES AND CANCER” (AC BIOSCIENCE SA, priority 2019, published 2022).

Each structure is given as a SMILES string.

Assay [1] addresses T1, S1P lyase (Mus musculus, UniProt Q8R0X7).
T1 construct: host or cells: mice (in vivo)
T1 sequence (Q8R0X7 1-568): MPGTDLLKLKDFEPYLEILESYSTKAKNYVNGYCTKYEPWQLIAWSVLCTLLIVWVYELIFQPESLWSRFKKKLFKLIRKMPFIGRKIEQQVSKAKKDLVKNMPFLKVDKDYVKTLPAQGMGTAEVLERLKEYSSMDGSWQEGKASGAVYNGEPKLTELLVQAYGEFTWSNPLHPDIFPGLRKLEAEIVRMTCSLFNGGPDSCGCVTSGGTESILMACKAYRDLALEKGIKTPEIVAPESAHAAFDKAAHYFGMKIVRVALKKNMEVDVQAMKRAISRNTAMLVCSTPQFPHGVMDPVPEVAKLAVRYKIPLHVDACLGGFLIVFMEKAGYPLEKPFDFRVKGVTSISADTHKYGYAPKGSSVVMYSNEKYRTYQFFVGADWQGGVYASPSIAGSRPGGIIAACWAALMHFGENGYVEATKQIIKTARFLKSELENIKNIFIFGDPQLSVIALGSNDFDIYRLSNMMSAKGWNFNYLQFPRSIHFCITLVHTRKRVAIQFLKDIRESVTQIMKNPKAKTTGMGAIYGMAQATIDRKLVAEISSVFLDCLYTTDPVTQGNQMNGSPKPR
The conditions noted are these: administered to mice; cited from earlier work.

Assay [2] concerns the target T2, recombinant human Pyridoxal kinase (PDXK) (Homo sapiens, UniProt O00764).
T2 sequence (O00764 1-312): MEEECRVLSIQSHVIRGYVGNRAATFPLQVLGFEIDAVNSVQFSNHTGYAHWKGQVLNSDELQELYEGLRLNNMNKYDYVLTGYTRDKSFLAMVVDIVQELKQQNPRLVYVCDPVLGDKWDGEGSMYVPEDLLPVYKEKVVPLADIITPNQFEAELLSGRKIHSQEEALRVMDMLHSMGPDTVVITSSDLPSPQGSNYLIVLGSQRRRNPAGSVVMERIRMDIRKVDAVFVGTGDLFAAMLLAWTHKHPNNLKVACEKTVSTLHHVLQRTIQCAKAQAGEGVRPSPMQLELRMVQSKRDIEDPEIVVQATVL
Description: In vitro phosphorylation by recombinant human pyridoxal kinase (ADP formation, ADPglo luminescence). The format is biochemical. To be noted: 200 μM compound, 10 μg/ml rhPDXK, 1 mM ATP, 1 hour at 37° C.; FIG. 2. On the procedure: ACB1906, A6770, 4-DOP (200 μM) and pyridoxal HCL (1 mM) were incubated with 10 μg/ml rhPDXK for 1 hour at 37° C. in the presence of 1 mM ATP containing—10 mM HEPES buffer with 0.05% Triton X-100, 0.01% Plurogenic F127, 25 μM Na3VO4 and 250 μM MgCl2. ADP formation was measured using the luminescence-based ADPglo kit from Promega. Statistical significance determined by Anova. *denotes p<0.05.
ACB1906's ability to be phosphorylated by recombinant human Pyridoxal kinase (PDXK) in vitro was compared to the structurally similar known imidazole S1PL inhibitor A6770, the PDXK and S1PL non-specific inhibitor 4-deoxypyridoxine (4-DOP) and the natural pyridoxal ligand. […] Increased phosphorylation of thiazole compounds confers an advantage in therapeutic applications as this would be a limiting step for its ability to effect a therapeutically relevant modulation in S1P levels.
(In general: In ADP-Glo the light output rises with the ADP produced.)

The target of assay [3] is T2, recombinant human Pyridoxal kinase (PDXK). The conditions noted are these: already reported; cited from earlier work.

As for `CC(=O)c1nc([C@@H](O)[C@H](O)[C@H](O)CO)c[nH]1` [THI, 1-(4-((1R,2S,3R)-1,2,3,4-Tetrahydroxybutyl)-1H-imidazol-2-yl)ethan-1-one], in assay [1], the S1P lyase activity entry is on record as “inhibits S1P lyase activity”.
With `CC(=O)c1nc(CO)cs1` [Compound 6], the “ability to be phosphorylated (ADP formation) in comparison to A6770” value in assay [2] is on record as about 2 fold.
For `CC(=O)c1nc(CO)c[nH]1` [Compound A6770, 1-(4-(Hydroxymethyl)-1H-imidazol-2-yl)ethan-1-one], in assay [3], the “phosphorylation by PDXK to A6770-P” value is reported as “reported to phosphorylate”.
